This data set deals with Salmonella enterica subsp. Enterica serovar Typhimurium (ATCC 29629, TA 1535). As to the kind of experiment: Ames test. The conditions noted are these: positive control. In kind it is cell-based. An excerpt: The Ames test was followed according to a previously reported procedure (Ames et al, 1973; Mortelmans and Zeiger, 2000). Briefly, the test organism Salmonella enterica subsp. Enterica serovar Typhimurium (ATCC® 29629-Strain Designations: TA 1535), an auxotrophic mutant, was provided by ATCC, Manassas, USA. This auxotrophic isolate requires histidine for its growth, due to a mutation in its DNA. Substances to be tested for their mutagenesis, could be added in the histidine-free medium of the test organism, to monitor their ability to reverse back the mutated Salmonella typhimurium to a prototrophic state, enabling it to grow. The anti-bacterial mouthwash was incorporated in the histidine-free medium used in the Ames test, at four different concentrations namely, 1/100×, 1×, 1.5×, and 2× (where X is the dilution used in mouth rinsing experiments), while another batch of the medium was deprived of the Mouthwash substance. Ethidium bromide, an expected positive inducer of mutations in the test organism, was incorporated in another batch of the same histidine-free medium at two concentrations namely, 20 and 200 nmole. The S. Typhimurium was cultured in triplicate onto the 4 differently supplemented media, and on the 5th control medium that was deprived of supplementation, to observe the growth of this test organism. The bacterium was spread over these media with small amounts of histidine that helps in the initiation of the growth, and once this amino acid is depleted, only the mutated cells by the supplemented substance will be able to synthesize their histidine, and to continue their growth. Thus, mutagenicity is determined in this research from the proportion of the average colony forming units formed on triplicate of the supplemented medium with the anti-bacterial mouthwash versus that formed on triplicate of the non-supplemented medium, with the growth on Ethidium bromide acting as a positive control of the test.
The results of the Ames test in relation to reversion of the S. Typhimurium test organism from its auxotrophic to prototrophic nature is shown in Table 4.
For orientation: The Ames test detects mutagens through reverse mutation in bacteria.

Molecules are shown by their SMILES.

`CC[n+]1c(-c2ccccc2)c2cc(N)ccc2c2ccc(N)cc21` [Ethidium bromide]: the “Mean % increase in S. Typhimurium CFU count of triplicate relative to mean triplicate count on minimal Histidine-supplemented medium” value is, setting by setting: (20 nmol/plate) 0%; (20 nmol/plate, listed as Eth) 0.0%; (200 nmol/plate, apparent reversion of mutation (P<0.05)) 12.5%.

For the origin of these results see patent US9855209B1, “Anti-bacterial mouthwash” (KING ABDULAZIZ UNIVERSITY, priority 2017, dated 2018).
